Earlier results in article PMC13050480, “Preclinical Development of GT-14, a Novel Inhibitor of Gαi2 Protein: Comprehensive Evaluation of Physicochemical, Metabolic Characteristics and Tissue Distribution” (The AAPS journal, 2025).

Legend:
albumin = system: albumin; set-up: method as in PMID 27106175; conditions: cited from earlier work
[1] = cited from earlier work
α1-acid glycoprotein = system: α1-acid glycoprotein; set-up: method as in PMID 27106175; conditions: cited from earlier work

C[C@]12CC[C@H](O)CC1=CC[C@@H]1[C@@H]2CC[C@]2(C)C(c3cccnc3)=CC[C@@H]12 [Abiraterone]
protein-bound to albumin (albumin): 95.6–99.9% | volume of distribution (Vd) [1]: ~ 5630 L | protein-bound to α1-acid glycoprotein (α1-acid glycoprotein): 89.4–95.6%

CC(O)(CS(=O)(=O)c1ccc(F)cc1)C(=O)Nc1ccc(C#N)c(C(F)(F)F)c1 (stereo not shown) [Bicalutamide]
half-life [1]: 25 to 30 h | oral bioavailability [1]: high oral bioavailability | tissue distribution of [3H]-Bicalutamide [1]: preferential accumulation in the prostate, pituitary gland, and seminal vesicles, with limited brain penetration

CNC(=O)c1ccc(N2C(=S)N(c3ccc(C#N)c(C(F)(F)F)c3)C(=O)C2(C)C)cc1F [Enzalutamide]
apparent oral volume of distribution (Vd/F) [1]: around 110 L
